Measured values reported in patent publication US20150164895A1, “DETERMINING SENSITIVITY OF CELLS TO B-RAF INHIBITOR TREATMENT BY DETECTING KRAS MUTATION AND RTK EXPRESSION LEVELS” (GENENTECH, INC., priority 2009, published 2015).
Values joined by “and” are separate entries in the source; they are usually repeats but may differ in a detail not shown here. Equal entries are not always repeated.

Legend:
[1] = system: pMEK levels in non-B-Raf^V600E lines; experiment: pMEK levels / Raf/MEK/ERK pathway induction by Raf inhibitors; assay type: cell-based
[2] = system: LXFA 983/9N4 (Lung, adeno); experiment: Oncotest Exp H331: growth of LXFA 983 lung tumor xenograft after dosing with B-RAF inhibitor; assay type: in vivo, mice; conditions: H331-2, 100 mg/kg/day, Days 0-21; for Absolute body weight, Median / Relative body weight, Median / Absolute tumor volume: (a*b*b)/2, Median / Relative tumor volume, Median: group median; for Absolute body weight, Median / Relative body weight, Median: n 10; for Absolute tumor volume: (a*b*b)/2, Median / Relative tumor volume, Median: n 15; for Relative tumor volume / Absolute tumor volume: (a*b*b)/2: individual tumors
Text: (§1) FIGS. 10-18 depict growth in lung tumor xenografts after dosing with GDC-0879.
(§2) The data are shown below, and in FIGS. 10-14 for Experiment H331 and FIGS. 15-18 for Experiment H327.

[3] = system: phospho-MEK in B-RAF V600E mutant cell lines; experiment: Phospho-MEK MSD assay, basal and EGF-stimulated; assay type: cell-based; conditions: basal and EGF-stimulated (20 ng/ml EGF); compared with PLX4720
Protocol: (A) Cells were treated with […] compound in serum free media for 1 hour. For stimulation 20 ng/ml EGF was added for 5 min before cells were lysed. Lysates were transferred to an MSD plate where phospho- and total MEK levels were measured. […] Cells were dosed with indicated inhibitors, either alone or in combination in the presence of 20 ng/ml EGF in the media.

lung tumor xenografts = experiment: Experiment H327: growth in lung tumor xenografts after dosing with B-RAF inhibitor; assay type: in vivo, mice; conditions: H327-2, LXFA 1041/9N4, 100 mg/kg/day po Days 0-20
Text: as §1, §2

[4] = study day 3, individual animals, listed as G-026887
[5] = study day 3, listed as G-026887
[6] = study day 7, individual animals, listed as G-026887
[7] = study day 7, listed as G-026887
[8] = study day 10, individual animals, listed as G-026887
[9] = study day 10, listed as G-026887
[10] = study day 14, individual animals, listed as G-026887
[11] = study day 14, listed as G-026887
[12] = study day 17, individual animals, listed as G-026887
[13] = study day 17, listed as G-026887
[14] = study day 21, individual animals, listed as G-026887
[15] = study day 21, listed as G-026887

OCCn1cc(-c2ccc3c(c2)CC/C3=N\O)c(-c2ccncc2)n1 [GDC-0879, 2-{4-[(1E)-1-(hydroxyimino)-2,3-dihydro-1H-inden-5-yl]-3-(pyridine-4-yl)-1H-pyrazol-1-yl}ethan-1-ol]
effect on pMEK levels ([1]; after serum stimulation): Inhibitory effects of GDC-0879 predominate
effect on pMEK levels / c-Raf ([1]; basal conditions): bell-shaped curve
Survival time ([2]; individual animals, listed as G-026887): >22 days (6×) and >21 days (14×)
Absolute body weight, Median ([2]; study day 0): 27.5 g
Relative body weight, Median ([2]; study day 0): 100.0%
Absolute tumor volume: (a*b*b)/2, Median ([2]; study day 0): 117.2 mm3
Relative tumor volume, Median ([2]; study day 0): 100.0%
Relative body weight ([2]; study day 0, individual animals): 100.0%
Absolute body weight ([2]; study day 0, individual animals, listed as G-026887): 27.2 g and 26.9 g and 27.3 g and 26.1 g and 29.4 g and 24.8 g and 31.2 g (2×) and 30.2 g and 27.6 g
Relative tumor volume ([2]; study day 0): 100.0%
Absolute tumor volume: (a*b*b)/2 ([2]; study day 0, listed as G-026887): 117.2 mm3 and 121.1 mm3 and 94.1 mm3 and 137.3 mm3 and 237.3 mm3 and 62.5 mm3 and 80.2 mm3 and 123.0 mm3 and 111.6 mm3 and 74.4 mm3 (2×) and 219.4 mm3 and 55.3 mm3 and 150.4 mm3 and 130.7 mm3
Absolute body weight, Median ([2]; study day 3): 27.2 g
Relative body weight, Median ([2]; study day 3): 97.9%
Absolute tumor volume: (a*b*b)/2, Median ([2]; study day 3): 236.3 mm3
Relative tumor volume, Median ([2]; study day 3): 211.7%
Absolute body weight [2, 4]: 26.8 g and 27.2 g and 26.7 g and 25.6 g and 27.9 g and 24.7 g and 29.4 g and 29.2 g and 27.1 g and 29.6 g
Relative body weight [2, 4]: 94.9% (2×) and 98.5% and 101.1% and 97.8% and 98.1% and 99.6% and 94.2% and 96.7% and 98.2%
Absolute tumor volume: (a*b*b)/2 [2, 5]: 265.6 mm3 and 166.6 mm3 and 188.5 mm3 and 239.1 mm3 and 546.2 mm3 and 176.4 mm3 and 210.9 mm3 and 268.8 mm3 and 236.3 mm3 and 156.8 mm3 and 392.9 mm3 and 119.1 mm3 and 310.7 mm3 and 295.9 mm3 and 83.2 mm3
Relative tumor volume [2, 5]: 111.8% and 226.6% and 137.6% and 200.4% and 174.1% and 230.2% and 282.2% and 263.0% and 218.5% and 211.7% and 210.9% and 179.1% and 215.3% and 206.6% and 226.4%
Absolute body weight, Median ([2]; study day 7): 27.3 g
Relative body weight, Median ([2]; study day 7): 96.5%
Absolute tumor volume: (a*b*b)/2, Median ([2]; study day 7): 348.2 mm3
Relative tumor volume, Median ([2]; study day 7): 293.3%
Absolute body weight [2, 6]: 26.3 g (2×) and 27.4 g and 25.7 g and 27.1 g and 24.2 g and 28.9 g and 28.1 g and 27.6 g and 29.3 g
Relative body weight [2, 6]: 93.9% and 96.7% and 101.9% and 96.3% and 98.5% and 92.2% and 97.6% and 92.6% and 93.0% and 100.0%
Absolute tumor volume: (a*b*b)/2 [2, 7]: 392.9 mm3 and 325.1 mm3 and 261.6 mm3 and 445.5 mm3 and 689.1 mm3 and 289.1 mm3 and 348.2 mm3 and 344.4 mm3 and 455.1 mm3 and 253.1 mm3 and 560.0 mm3 and 216.6 mm3 and 352.5 mm3 and 383.3 mm3
Relative tumor volume [2, 7]: 152.3% and 335.2% and 268.5% and 278.0% and 324.4% and 290.4% and 462.6% and 434.2% and 280.0% and 407.8% and 340.4% and 255.3% and 391.6% and 234.4%
Absolute body weight, Median ([2]; study day 10): 27.3 g
Relative body weight, Median ([2]; study day 10): 97.9%
Absolute tumor volume: (a*b*b)/2, Median ([2]; study day 10): 406.6 mm3
Relative tumor volume, Median ([2]; study day 10): 392.5%
Absolute body weight [2, 8]: 26.7 g (2×) and 26.9 g and 25.6 g and 27.6 g and 25.3 g and 29.1 g (2×) and 28.6 g (2×)
Relative body weight [2, 8]: 91.7% and 98.2% and 100.0% and 97.8% and 98.1% and 93.9% and 102.0% and 93.3% and 96.4% and 103.6%
Absolute tumor volume: (a*b*b)/2 [2, 9]: 431.7 mm3 and 379.3 mm3 and 329.5 mm3 and 539.0 mm3 and 964.8 mm3 and 404.0 mm3 and 612.5 mm3 and 525.4 mm3 and 528.2 mm3 and 302.6 mm3 and 570.0 mm3 and 348.5 mm3 and 372.6 mm3 and 406.6 mm3
Relative tumor volume [2, 9]: 269.9% and 368.3% and 313.3% and 350.2% and 392.5% and 406.6% and 646.4% and 763.8% and 427.1% and 473.3% and 406.9% and 259.8% and 630.2% and 247.8%
Absolute body weight, Median ([2]; study day 14): 28.6 g
Relative body weight, Median ([2]; study day 14): 99.5%
Absolute tumor volume: (a*b*b)/2, Median ([2]; study day 14): 578.8 mm3
Relative tumor volume, Median ([2]; study day 14): 580.3%
Absolute body weight [2, 10]: 26.8 g and 27.2 g and 28.2 g and 25.5 g and 29.1 g and 25.8 g and 29.4 g and 30.2 g and 28.9 g and 30.3 g
Relative body weight [2, 10]: 97.1% and 98.5% and 101.1% and 103.3% and 97.7% and 99.0% and 104.0% and 94.2% and 100.0% and 104.7%
Absolute tumor volume: (a*b*b)/2 [2, 11]: 578.8 mm3 and 655.5 mm3 and 545.9 mm3 and 574.3 mm3 and 1411.2 mm3 and 581.0 mm3 and 1115.4 mm3 and 951.3 mm3 and 891.1 mm3 and 318.2 mm3 and 597.5 mm3 and 390.2 mm3 and 510.0 mm3 and 499.4 mm3
Relative tumor volume [2, 11]: 620.2% and 493.8% and 541.3% and 580.3% and 418.3% and 594.7% and 929.7% and 1390.9% and 773.4% and 798.5% and 427.9% and 272.4% and 705.6% and 339.1%
Absolute body weight, Median ([2]; study day 17): 28.8 g
Relative body weight, Median ([2]; study day 17): 100.8%
Absolute tumor volume: (a*b*b)/2, Median ([2]; study day 17): 742.6 mm3
Relative tumor volume, Median ([2]; study day 17): 719.8%
Absolute body weight [2, 12]: 27.2 g and 27.6 g and 28.5 g and 25.8 g (2×) and 29.5 g (2×) and 30.6 g and 29.0 g and 30.7 g
Relative body weight [2, 12]: 98.4% and 100.0% and 102.6% and 104.4% and 98.9% and 100.3% and 104.0% and 94.6% and 101.3% and 105.1%
Absolute tumor volume: (a*b*b)/2 [2, 13]: 705.7 mm3 and 742.6 mm3 and 701.1 mm3 and 841.5 mm3 and 1708.0 mm3 and 642.0 mm3 and 1229.4 mm3 and 1327.1 mm3 and 1247.1 mm3 and 426.5 mm3 and 778.8 mm3 and 520.5 mm3 and 606.4 mm3 and 758.4 mm3
Relative tumor volume [2, 13]: 860.5% and 602.1% and 613.3% and 745.2% and 612.8% and 719.8% and 1027.1% and 1533.1% and 1078.9% and 1117.5% and 573.5% and 355.0% and 941.4% and 403.2%
Absolute body weight, Median ([2]; study day 21): 29.0 g
Relative body weight, Median ([2]; study day 21): 103.5%
Absolute tumor volume: (a*b*b)/2, Median ([2]; study day 21): 958.8 mm3
Relative tumor volume, Median ([2]; study day 21): 826.5%
Absolute body weight [2, 14]: 28.6 g and 27.5 g and 29.3 g and 26.9 g and 31.1 g and 26.6 g and 30.6 g and 31.0 g and 28.7 g and 31.6 g
Relative body weight [2, 14]: 101.3% and 105.1% and 102.2% and 107.3% (2×) and 103.1% and 105.8% and 98.1% and 102.6% and 104.0%
Absolute tumor volume: (a*b*b)/2 [2, 15]: 893.3 mm3 and 1083.3 mm3 and 715.5 mm3 and 1030.4 mm3 and 1961.1 mm3 and 772.8 mm3 and 1472.3 mm3 and 1618.7 mm3 and 1461.9 mm3 and 550.0 mm3 and 958.8 mm3 and 609.2 mm3 and 712.9 mm3 and 874.7 mm3
Relative tumor volume [2, 15]: 1511.3% and 762.1% and 894.7% and 760.5% and 750.4% and 826.5% and 1236.5% and 1836.0% and 1316.0% and 1309.9% and 739.6% and 437.1% and 1101.7% and 474.0%
knocking down phospho-MEK levels [3]: more effective in knocking down phospho-MEK levels
Survival time (lung tumor xenografts; individual animal, listed as G-026887): >20 days (14×) and >21 days (6×)
Absolute body weight, Median (lung tumor xenografts; study day 0, group median n 10): 25.1 g
Relative body weight, Median (lung tumor xenografts; study day 0, group median n 10): 100.0%
Absolute tumor volume: (a*b*b)/2, Median (lung tumor xenografts; study day 0, group median n 20): 88.5 mm3
Relative tumor volume, Median (lung tumor xenografts; study day 0, group median n 20): 100.0%
Relative body weight (lung tumor xenografts; study day 0, individual animal): 100.0%
